Source: patent publication US6706663B2, “Herbicidal 3-heterocyclic substituted benzisothiazole and benzisoxazole compounds” (Wyeth, priority 2000, dated 2004)

Legend:
[1] = test system: TRZAWR (Wheat, Winter, cv Riband); assay: Preemergence herbicidal evaluation; type: in vivo, Triticum aestivum; conditions: rated 4-5 weeks after treatment
How it was run: (§1)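 Steps: mix seeds with potting soil; plant on ~1 inch soil per cup; spray compound in aqueous acetone; hold on greenhouse benches with routine watering; rate 0–9 visually against control at 4–5 weeks.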

GALAP (Galium aparine) [2] = assay: Preemergence herbicidal evaluation; type: in vivo; conditions: rated 4-5 weeks after treatment
How it was run: as §1

ZEAMX (Corn, Field) = assay: Postemergence herbicidal evaluation; type: in vivo, Zea mays, L.; conditions: postemergence
How it was run: (§2)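 Visual 0–9 injury scores versus control plants, covering stand, vigour, malformation, size, chlorosis and general appearance, taken four to five weeks post-spray and averaged over replicate tests. Plants were sprayed at roughly two weeks old and held on greenhouse benches.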

GALAP (Galium aparine) [3] = assay: Postemergence herbicidal evaluation; type: in vivo; conditions: postemergence
How it was run: as §2

ORYSAT (Rice, Tebonnet) [4] = assay: Preemergence herbicidal evaluation; type: in vivo, Oryza sativa, (L.) Tebonnet; conditions: rated 4-5 weeks after treatment
[5] = test system: ECHCG (Echinochloa crus-galli); assay: Preemergence herbicidal evaluation; type: in vivo, (L.) Beau; conditions: rated 4-5 weeks after treatment
How it was run: as §1

SETVI (Setaria viridis) = assay: Preemergence herbicidal evaluation; type: in vivo, (L.) Beau; conditions: rated 4-5 weeks after treatment
How it was run: as §1

[6] = test system: AMBEL (Ambrosia artemisifolia); assay: Postemergence herbicidal evaluation; type: in vivo, L.; conditions: postemergence
How it was run: as §2

[7] = test system: CASOB (Cassia obtusifolia); assay: Postemergence herbicidal evaluation; type: in vivo, L.; conditions: postemergence
How it was run: as §2

[8] = test system: CHEAL (Chenopodium album); assay: Postemergence herbicidal evaluation; type: in vivo, L.; conditions: postemergence
How it was run: as §2

[9] = test system: ABUTH (Abutilon theophrasti); assay: Postemergence herbicidal evaluation; type: in vivo, Medic.; conditions: postemergence
How it was run: as §2

[10] = test system: IPOHE (Ipomoea hederacea); assay: Postemergence herbicidal evaluation; type: in vivo, (L.) Jacq.; conditions: postemergence
How it was run: as §2

ORYSAT (Rice, Tebonnet) [11] = assay: Postemergence herbicidal evaluation; type: in vivo, Oryza sativa, (L.) Tebonnet; conditions: postemergence
How it was run: as §2

[12] = test system: GLXMAW (Soybean, Williams); assay: Postemergence herbicidal evaluation; type: in vivo, Glycine max, (L.) Merr. cv Williams; conditions: postemergence
How it was run: as §2

Cc1sccc1-c1nsc2ccc(-n3c(=O)cc(C(F)(F)F)n(C)c3=O)cc12 [Compound 68, 2,4(1H,3H)-pyrimidinedione, 1-methyl-3-[3-(2-methyl-3-thienyl)-1,2-benzisothiazol-5-yl]-6-(trifluoromethyl)-]
8.5: Preemergence herbicidal rating ECHCG ([5]; Rate 0.0620 kg/ha)
6.5: GLXMAW herbicidal rating ([12]; rate 0.0320 kg/ha)
7.0: Preemergence herbicidal rating TRZAWR ([1]; Rate 0.2500 kg/ha) | Preemergence herbicidal rating GALAP (GALAP (Galium aparine) [2]; Rate 0.0620 kg/ha) | GLXMAW herbicidal rating ([12]; rate 0.0620 kg/ha)
3.5: Preemergence herbicidal rating ORYSAT (ORYSAT (Rice, Tebonnet) [4]; Rate 0.1250 kg/ha)
5.0: Preemergence herbicidal rating TRZAWR ([1]; Rate 0.1250 kg/ha) | Preemergence herbicidal rating ORYSAT (ORYSAT (Rice, Tebonnet) [4]; Rate 0.2500 kg/ha) | CASOB herbicidal rating ([7]; rate 0.0320 kg/ha) | ORYSAT herbicidal rating (ORYSAT (Rice, Tebonnet) [11]; rate 0.0620 kg/ha)
2.0: Preemergence herbicidal rating TRZAWR ([1]; Rate 0.0620 kg/ha) | Preemergence herbicidal rating ORYSAT (ORYSAT (Rice, Tebonnet) [4]; Rate 0.0620 kg/ha)
5.5: ZEAMX herbicidal rating (ZEAMX (Corn, Field); rate 0.0320 kg/ha)
4.0: ORYSAT herbicidal rating (ORYSAT (Rice, Tebonnet) [11]; rate 0.0320 kg/ha)
6.0: Preemergence herbicidal rating GALAP (GALAP (Galium aparine) [2]; Rate 0.1250 kg/ha) | ZEAMX herbicidal rating (ZEAMX (Corn, Field); rate 0.0620 kg/ha) | CASOB herbicidal rating ([7]; rate 0.0620 kg/ha)
9.0: Preemergence herbicidal rating GALAP (GALAP (Galium aparine) [2]; Rate 0.2500 kg/ha) | GALAP herbicidal rating (GALAP (Galium aparine) [3]; rate 0.0320 kg/ha) | GALAP herbicidal rating (GALAP (Galium aparine) [3]; rate 0.0620 kg/ha) | Preemergence herbicidal rating ECHCG ([5]; Rate 0.1250 kg/ha) | Preemergence herbicidal rating ECHCG ([5]; Rate 0.2500 kg/ha) | Preemergence herbicidal rating SETVI (SETVI (Setaria viridis); Rate 0.0620 kg/ha) | Preemergence herbicidal rating SETVI (SETVI (Setaria viridis); Rate 0.1250 kg/ha) | Preemergence herbicidal rating SETVI (SETVI (Setaria viridis); Rate 0.2500 kg/ha) | AMBEL herbicidal rating ([6]; rate 0.0320 kg/ha) | AMBEL herbicidal rating ([6]; rate 0.0620 kg/ha) | CHEAL herbicidal rating ([8]; rate 0.0320 kg/ha) | CHEAL herbicidal rating ([8]; rate 0.0620 kg/ha) | ABUTH herbicidal rating ([9]; rate 0.0320 kg/ha) | ABUTH herbicidal rating ([9]; rate 0.0620 kg/ha) | IPOHE herbicidal rating ([10]; rate 0.0320 kg/ha) | IPOHE herbicidal rating ([10]; rate 0.0620 kg/ha)

Cn1c(C(F)(F)F)cc(=O)n(-c2ccc3snc(C4OCC5(CO4)CO5)c3c2)c1=O (stereo not shown) [Compound 70, 1-methyl-3-(3-spiro[m-dioxane-5,2′-oxiran]-2-yl-1,2-benzisothiazol-5-yl)-6-(trifluoromethyl)uracil]
8.5: GLXMAW herbicidal rating ([12]; rate 0.0620 kg/ha)
3.0: Preemergence herbicidal rating TRZAWR ([1]; Rate 0.0620 kg/ha) | Preemergence herbicidal rating ORYSAT (ORYSAT (Rice, Tebonnet) [4]; Rate 0.0620 kg/ha) | Preemergence herbicidal rating ECHCG ([5]; Rate 0.0620 kg/ha)
6.5: ZEAMX herbicidal rating (ZEAMX (Corn, Field); rate 0.0320 kg/ha)
5.0: CASOB herbicidal rating ([7]; rate 0.0320 kg/ha) | CASOB herbicidal rating ([7]; rate 0.0620 kg/ha) | ORYSAT herbicidal rating (ORYSAT (Rice, Tebonnet) [11]; rate 0.0320 kg/ha)
6.0: Preemergence herbicidal rating ORYSAT (ORYSAT (Rice, Tebonnet) [4]; Rate 0.1250 kg/ha) | Preemergence herbicidal rating SETVI (SETVI (Setaria viridis); Rate 0.0620 kg/ha) | ORYSAT herbicidal rating (ORYSAT (Rice, Tebonnet) [11]; rate 0.0620 kg/ha)
9.0: Preemergence herbicidal rating GALAP (GALAP (Galium aparine) [2]; Rate 0.1250 kg/ha) | GALAP herbicidal rating (GALAP (Galium aparine) [3]; rate 0.0620 kg/ha) | Preemergence herbicidal rating SETVI (SETVI (Setaria viridis); Rate 0.1250 kg/ha) | AMBEL herbicidal rating ([6]; rate 0.0320 kg/ha) | AMBEL herbicidal rating ([6]; rate 0.0620 kg/ha) | CHEAL herbicidal rating ([8]; rate 0.0320 kg/ha) | CHEAL herbicidal rating ([8]; rate 0.0620 kg/ha) | ABUTH herbicidal rating ([9]; rate 0.0320 kg/ha) | ABUTH herbicidal rating ([9]; rate 0.0620 kg/ha) | IPOHE herbicidal rating ([10]; rate 0.0620 kg/ha)
8.0: GALAP herbicidal rating (GALAP (Galium aparine) [3]; rate 0.0320 kg/ha)
7.0: Preemergence herbicidal rating TRZAWR ([1]; Rate 0.1250 kg/ha) | Preemergence herbicidal rating GALAP (GALAP (Galium aparine) [2]; Rate 0.0620 kg/ha) | ZEAMX herbicidal rating (ZEAMX (Corn, Field); rate 0.0620 kg/ha) | Preemergence herbicidal rating ECHCG ([5]; Rate 0.1250 kg/ha) | IPOHE herbicidal rating ([10]; rate 0.0320 kg/ha) | GLXMAW herbicidal rating ([12]; rate 0.0320 kg/ha)

Cn1c(C(F)(F)F)cc(=O)n(-c2ccc3snc(C4OC(=O)C(C)(C)O4)c3c2)c1=O (stereo not shown) [Compound 71, 3-[3-(4,4-dimethyl-5-oxo-1,3-dioxolan-2-yl)-1,2-benzisothiazol-5-yl]-1-methyl-6-(trifluoromethyl)uracil]
8.5: Preemergence herbicidal rating ORYSAT (ORYSAT (Rice, Tebonnet) [4]; Rate 0.2500 kg/ha)
6.0: Preemergence herbicidal rating GALAP (GALAP (Galium aparine) [2]; Rate 0.0620 kg/ha) | AMBEL herbicidal rating ([6]; rate 0.0620 kg/ha) | CHEAL herbicidal rating ([8]; rate 0.0320 kg/ha)
9.0: Preemergence herbicidal rating GALAP (GALAP (Galium aparine) [2]; Rate 0.1250 kg/ha) | Preemergence herbicidal rating GALAP (GALAP (Galium aparine) [2]; Rate 0.2500 kg/ha) | Preemergence herbicidal rating SETVI (SETVI (Setaria viridis); Rate 0.1250 kg/ha) | Preemergence herbicidal rating SETVI (SETVI (Setaria viridis); Rate 0.2500 kg/ha) | CHEAL herbicidal rating ([8]; rate 0.0620 kg/ha) | ABUTH herbicidal rating ([9]; rate 0.0320 kg/ha) | ABUTH herbicidal rating ([9]; rate 0.0620 kg/ha) | IPOHE herbicidal rating ([10]; rate 0.0320 kg/ha) | IPOHE herbicidal rating ([10]; rate 0.0620 kg/ha)
5.0: ZEAMX herbicidal rating (ZEAMX (Corn, Field); rate 0.0620 kg/ha)
7.0: Preemergence herbicidal rating TRZAWR ([1]; Rate 0.1250 kg/ha) | GALAP herbicidal rating (GALAP (Galium aparine) [3]; rate 0.0620 kg/ha) | AMBEL herbicidal rating ([6]; rate 0.0320 kg/ha)
4.5: ZEAMX herbicidal rating (ZEAMX (Corn, Field); rate 0.0320 kg/ha) | ORYSAT herbicidal rating (ORYSAT (Rice, Tebonnet) [11]; rate 0.0620 kg/ha) | GLXMAW herbicidal rating ([12]; rate 0.0320 kg/ha) | GLXMAW herbicidal rating ([12]; rate 0.0620 kg/ha)
5.5: Preemergence herbicidal rating ORYSAT (ORYSAT (Rice, Tebonnet) [4]; Rate 0.0620 kg/ha) | Preemergence herbicidal rating ECHCG ([5]; Rate 0.0620 kg/ha)
0.0: CASOB herbicidal rating ([7]; rate 0.0320 kg/ha)
2.0: GALAP herbicidal rating (GALAP (Galium aparine) [3]; rate 0.0320 kg/ha) | CASOB herbicidal rating ([7]; rate 0.0620 kg/ha)
8.0: Preemergence herbicidal rating TRZAWR ([1]; Rate 0.2500 kg/ha) | Preemergence herbicidal rating ORYSAT (ORYSAT (Rice, Tebonnet) [4]; Rate 0.1250 kg/ha) | Preemergence herbicidal rating ECHCG ([5]; Rate 0.1250 kg/ha) | Preemergence herbicidal rating ECHCG ([5]; Rate 0.2500 kg/ha) | Preemergence herbicidal rating SETVI (SETVI (Setaria viridis); Rate 0.0620 kg/ha)
4.0: Preemergence herbicidal rating TRZAWR ([1]; Rate 0.0620 kg/ha)
3.0: ORYSAT herbicidal rating (ORYSAT (Rice, Tebonnet) [11]; rate 0.0320 kg/ha)

Cn1c(C(F)(F)F)cc(=O)n(-c2ccc3snc(C4OCC(CCl)O4)c3c2)c1=O (stereo not shown) [Compound 72, 3-[3-[4-(chloromethyl)-1,3-dioxolan-2-yl]-1,2-benzisothiazol-5-yl]-1-methyl-6-(trifluoromethyl)uracil]
6.5: GLXMAW herbicidal rating ([12]; rate 0.0320 kg/ha)
8.5: Preemergence herbicidal rating ORYSAT (ORYSAT (Rice, Tebonnet) [4]; Rate 0.0620 kg/ha) | Preemergence herbicidal rating ORYSAT (ORYSAT (Rice, Tebonnet) [4]; Rate 0.1250 kg/ha) | GLXMAW herbicidal rating ([12]; rate 0.0620 kg/ha)
5.0: ZEAMX herbicidal rating (ZEAMX (Corn, Field); rate 0.0320 kg/ha) | ZEAMX herbicidal rating (ZEAMX (Corn, Field); rate 0.0620 kg/ha) | CASOB herbicidal rating ([7]; rate 0.0320 kg/ha) | CASOB herbicidal rating ([7]; rate 0.0620 kg/ha)
4.0: ORYSAT herbicidal rating (ORYSAT (Rice, Tebonnet) [11]; rate 0.0320 kg/ha)
7.0: Preemergence herbicidal rating TRZAWR ([1]; Rate 0.0620 kg/ha)
8.0: Preemergence herbicidal rating GALAP (GALAP (Galium aparine) [2]; Rate 0.0620 kg/ha)
9.0: Preemergence herbicidal rating TRZAWR ([1]; Rate 0.1250 kg/ha) | Preemergence herbicidal rating TRZAWR ([1]; Rate 0.2500 kg/ha) | Preemergence herbicidal rating GALAP (GALAP (Galium aparine) [2]; Rate 0.1250 kg/ha) | Preemergence herbicidal rating GALAP (GALAP (Galium aparine) [2]; Rate 0.2500 kg/ha) | GALAP herbicidal rating (GALAP (Galium aparine) [3]; rate 0.0320 kg/ha) | GALAP herbicidal rating (GALAP (Galium aparine) [3]; rate 0.0620 kg/ha) | Preemergence herbicidal rating ORYSAT (ORYSAT (Rice, Tebonnet) [4]; Rate 0.2500 kg/ha) | Preemergence herbicidal rating ECHCG ([5]; Rate 0.0620 kg/ha) | Preemergence herbicidal rating ECHCG ([5]; Rate 0.1250 kg/ha) | Preemergence herbicidal rating ECHCG ([5]; Rate 0.2500 kg/ha) | Preemergence herbicidal rating SETVI (SETVI (Setaria viridis); Rate 0.0620 kg/ha) | Preemergence herbicidal rating SETVI (SETVI (Setaria viridis); Rate 0.1250 kg/ha) | Preemergence herbicidal rating SETVI (SETVI (Setaria viridis); Rate 0.2500 kg/ha) | AMBEL herbicidal rating ([6]; rate 0.0320 kg/ha) | AMBEL herbicidal rating ([6]; rate 0.0620 kg/ha) | CHEAL herbicidal rating ([8]; rate 0.0320 kg/ha) | CHEAL herbicidal rating ([8]; rate 0.0620 kg/ha) | ABUTH herbicidal rating ([9]; rate 0.0320 kg/ha) | ABUTH herbicidal rating ([9]; rate 0.0620 kg/ha) | IPOHE herbicidal rating ([10]; rate 0.0320 kg/ha) | IPOHE herbicidal rating ([10]; rate 0.0620 kg/ha)
4.5: ORYSAT herbicidal rating (ORYSAT (Rice, Tebonnet) [11]; rate 0.0620 kg/ha)
